Data as given in ChEMBL document CHEMBL1201862, “PubChem BioAssay data set” (2004).
The source made the active and inactive calls.

What was measured:
[1] = molecular target: Peroxisome proliferator-activated receptor gamma/Nuclear receptor coactivator 2 (Homo sapiens, UniProt P37231); type: functional;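 further: agonist potency for raising coactivator recruitment to the receptor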
[2] = molecular target: Peroxisome proliferator-activated receptor gamma/Nuclear receptor coactivator 1 (Homo sapiens, UniProt P37231); type: functional;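 further: agonist potency as compounds enhance coactivator SRC-1 recruitment to PPARgamma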
[3] = molecular target: Peroxisome proliferator-activated receptor gamma/Nuclear receptor coactivator 3 (Homo sapiens, UniProt P37231); type: functional;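 further: agonist potency for raising coactivator recruitment to the receptor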
[4] = molecular target: Acyl-homoserine lactone acylase PvdQ (Pseudomonas aeruginosa (strain LESB58), UniProt Q9I194); test: PvdQ acylase enzyme activity blockers – biochemical, fluorescence, plate reader and imaging, cherry-picks, dose response (AID 493231)
[5] = system: HEK293; test: inhibition of NOD1-driven NF-kB reporter – cell-based, luminescence, uHTS, primary screen (AID 1578); type: functional; conditions: Homo sapiens
[6] = system: HEK293; test: cells; type: functional, cell-based; conditions: Homo sapiens
[7] = A Cell Based Secondary Assay To Explore Cytotoxicity of Compounds that Sensitize Mycobacterium Tuberculosis to Beta-Lactam Antibiotics.; type: functional
[8] = system: Vero; test: mammalian cell viability reduction – secondary assay, cytotoxicity control for West Nile virus antiviral project, dose response (AID 1650); type: functional; conditions: Chlorocebus sabaeus
[9] = system: HEK293; test: cells; type: functional, cell-based; conditions: Homo sapiens; remark: listed apart in the source
[10] = system: HEK293; test: NOD2 signaling inhibitors in MDP-stimulated cells, cell-based, uHTS, luminescence (AID 2001); type: functional; conditions: Homo sapiens
[11] = system: Vero; test: cells; type: functional, cell-based; conditions: Chlorocebus sabaeus
[12] = system: Vero; test: cells; type: functional; conditions: Chlorocebus sabaeus
[13] = molecular target: Beta-galactosidase (Escherichia coli, UniProt Q8VNN2); test: PubChem AID 485352; type: functional
[14] = M. tuberculosis H37Rv growth inhibitors, H37Rv strain (AID 1626); type: functional
[15] = molecular target: T1, Type-1 angiotensin II receptor (Homo sapiens, UniProt P30556); test: antagonism of angiotensin II type 1 receptor – cell-based, uHTS hits, selectivity assay for APJ receptor antagonist project, dose response (AID 463214); type: functional;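 further: antagonist potency against angiotensin II stimulated AT1 response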
T1 sequence (P30556 whole entry): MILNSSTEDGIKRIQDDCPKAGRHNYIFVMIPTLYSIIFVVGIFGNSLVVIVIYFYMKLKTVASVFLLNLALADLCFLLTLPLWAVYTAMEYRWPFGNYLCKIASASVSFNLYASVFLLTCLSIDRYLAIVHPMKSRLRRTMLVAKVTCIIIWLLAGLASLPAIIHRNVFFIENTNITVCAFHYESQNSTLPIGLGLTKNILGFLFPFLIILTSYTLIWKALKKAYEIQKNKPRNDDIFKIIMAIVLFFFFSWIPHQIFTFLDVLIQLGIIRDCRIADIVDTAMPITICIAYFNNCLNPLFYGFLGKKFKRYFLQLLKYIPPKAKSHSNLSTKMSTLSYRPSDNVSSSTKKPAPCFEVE

[16] = CCR5-tropic HIV-1 fusion blockers – cell-based, CCR5-tropic Env, dose response (AID 2279); type: functional
[17] = molecular target: DNA dC->dU-editing enzyme APOBEC-3A (Homo sapiens, UniProt P31941); test: A3A deaminase inhibition for selectivity – biochemical, dose response (AID 504722); type: functional
[18] = molecular target: DNA dC->dU-editing enzyme APOBEC-3G (Homo sapiens, UniProt Q9HC16); test: Dose Response confirmation of small molecule APOBEC3G DNA Deaminase Inhibitors via a fluorescence-based single-stranded DNA deaminase assay. [Related pubchem assays (depositor defined):AID493012, AID493028]; type: functional
[19] = molecular target: T2, Rac GTPase-activating protein 1 (Homo sapiens, UniProt Q9H0H5); test: blockers of MgcRacGAP-driven Rac1 GTP hydrolysis – biochemical, ADP Hunter fluorescence, primary and confirmatory, confirmation (AID 624330); type: functional
T2 sequence (Q9H0H5 whole entry): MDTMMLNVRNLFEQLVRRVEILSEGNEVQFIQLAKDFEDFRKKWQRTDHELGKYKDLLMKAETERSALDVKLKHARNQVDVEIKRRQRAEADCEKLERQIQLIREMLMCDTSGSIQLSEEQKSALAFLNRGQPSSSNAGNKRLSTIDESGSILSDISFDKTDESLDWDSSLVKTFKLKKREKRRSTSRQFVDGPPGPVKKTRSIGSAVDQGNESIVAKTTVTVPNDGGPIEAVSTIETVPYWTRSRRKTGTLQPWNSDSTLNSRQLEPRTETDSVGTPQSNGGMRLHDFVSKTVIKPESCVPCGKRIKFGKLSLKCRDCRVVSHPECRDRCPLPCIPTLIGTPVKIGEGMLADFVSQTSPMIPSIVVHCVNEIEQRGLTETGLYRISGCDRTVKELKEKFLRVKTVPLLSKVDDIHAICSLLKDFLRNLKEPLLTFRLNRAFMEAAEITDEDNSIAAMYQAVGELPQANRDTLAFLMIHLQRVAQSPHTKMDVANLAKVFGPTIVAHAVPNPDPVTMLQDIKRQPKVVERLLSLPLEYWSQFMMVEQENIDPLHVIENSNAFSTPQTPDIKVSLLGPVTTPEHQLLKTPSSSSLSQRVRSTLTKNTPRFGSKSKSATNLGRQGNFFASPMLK

Peroxisome proliferator-activated receptor gamma/Nuclear receptor coactivator 1, sequence (P37231 whole entry): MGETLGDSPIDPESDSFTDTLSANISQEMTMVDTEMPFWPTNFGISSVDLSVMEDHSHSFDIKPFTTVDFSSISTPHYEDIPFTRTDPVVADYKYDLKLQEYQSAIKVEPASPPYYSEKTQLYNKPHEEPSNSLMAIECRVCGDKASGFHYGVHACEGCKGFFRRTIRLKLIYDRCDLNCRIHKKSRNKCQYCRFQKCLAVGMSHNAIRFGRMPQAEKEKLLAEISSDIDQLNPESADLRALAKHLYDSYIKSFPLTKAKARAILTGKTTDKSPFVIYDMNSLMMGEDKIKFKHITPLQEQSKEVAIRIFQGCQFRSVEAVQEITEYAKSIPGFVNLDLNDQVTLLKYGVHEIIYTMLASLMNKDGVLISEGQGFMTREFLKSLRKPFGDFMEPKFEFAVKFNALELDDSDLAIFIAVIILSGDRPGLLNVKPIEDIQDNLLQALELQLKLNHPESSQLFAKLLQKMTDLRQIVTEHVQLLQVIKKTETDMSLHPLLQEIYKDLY
Peroxisome proliferator-activated receptor gamma/Nuclear receptor coactivator 1, sequence (Q15788 whole entry, further chain): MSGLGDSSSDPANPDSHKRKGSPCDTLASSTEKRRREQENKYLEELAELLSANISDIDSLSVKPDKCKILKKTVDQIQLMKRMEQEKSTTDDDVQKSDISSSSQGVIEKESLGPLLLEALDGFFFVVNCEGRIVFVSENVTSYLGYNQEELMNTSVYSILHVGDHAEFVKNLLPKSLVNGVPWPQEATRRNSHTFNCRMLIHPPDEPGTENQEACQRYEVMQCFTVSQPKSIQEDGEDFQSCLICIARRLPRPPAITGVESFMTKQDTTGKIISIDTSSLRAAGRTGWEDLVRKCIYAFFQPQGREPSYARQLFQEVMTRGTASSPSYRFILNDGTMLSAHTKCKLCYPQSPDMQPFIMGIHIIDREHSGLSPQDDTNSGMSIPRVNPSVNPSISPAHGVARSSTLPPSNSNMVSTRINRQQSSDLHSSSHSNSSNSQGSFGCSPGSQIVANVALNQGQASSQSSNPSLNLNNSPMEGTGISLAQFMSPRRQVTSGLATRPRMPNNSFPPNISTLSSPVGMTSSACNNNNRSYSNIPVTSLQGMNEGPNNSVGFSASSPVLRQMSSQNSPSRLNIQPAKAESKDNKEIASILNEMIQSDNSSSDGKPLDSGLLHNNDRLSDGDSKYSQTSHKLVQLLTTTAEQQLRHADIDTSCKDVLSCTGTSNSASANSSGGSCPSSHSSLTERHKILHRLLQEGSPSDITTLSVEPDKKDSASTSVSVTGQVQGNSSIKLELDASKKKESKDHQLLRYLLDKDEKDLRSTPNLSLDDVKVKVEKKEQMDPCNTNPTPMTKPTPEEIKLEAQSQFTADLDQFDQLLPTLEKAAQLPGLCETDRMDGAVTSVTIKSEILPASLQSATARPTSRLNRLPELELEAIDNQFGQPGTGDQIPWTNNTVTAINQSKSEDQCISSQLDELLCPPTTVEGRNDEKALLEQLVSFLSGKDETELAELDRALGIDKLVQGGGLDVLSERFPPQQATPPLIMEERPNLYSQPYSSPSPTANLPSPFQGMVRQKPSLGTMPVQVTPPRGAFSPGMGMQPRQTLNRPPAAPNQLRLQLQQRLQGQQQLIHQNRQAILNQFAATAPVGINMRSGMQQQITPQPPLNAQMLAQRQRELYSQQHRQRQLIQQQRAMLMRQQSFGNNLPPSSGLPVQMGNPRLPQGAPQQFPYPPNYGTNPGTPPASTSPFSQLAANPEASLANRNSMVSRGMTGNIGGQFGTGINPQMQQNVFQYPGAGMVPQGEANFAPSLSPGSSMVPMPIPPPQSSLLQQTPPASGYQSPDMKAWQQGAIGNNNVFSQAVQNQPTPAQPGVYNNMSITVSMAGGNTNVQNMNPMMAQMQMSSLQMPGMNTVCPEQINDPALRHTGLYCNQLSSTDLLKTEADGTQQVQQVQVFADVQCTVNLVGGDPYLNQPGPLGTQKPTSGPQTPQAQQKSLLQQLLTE
Peroxisome proliferator-activated receptor gamma/Nuclear receptor coactivator 2, sequence (P37231 whole entry): as the sequence (P37231 whole entry) above
Peroxisome proliferator-activated receptor gamma/Nuclear receptor coactivator 2, sequence (Q15596 whole entry, further chain): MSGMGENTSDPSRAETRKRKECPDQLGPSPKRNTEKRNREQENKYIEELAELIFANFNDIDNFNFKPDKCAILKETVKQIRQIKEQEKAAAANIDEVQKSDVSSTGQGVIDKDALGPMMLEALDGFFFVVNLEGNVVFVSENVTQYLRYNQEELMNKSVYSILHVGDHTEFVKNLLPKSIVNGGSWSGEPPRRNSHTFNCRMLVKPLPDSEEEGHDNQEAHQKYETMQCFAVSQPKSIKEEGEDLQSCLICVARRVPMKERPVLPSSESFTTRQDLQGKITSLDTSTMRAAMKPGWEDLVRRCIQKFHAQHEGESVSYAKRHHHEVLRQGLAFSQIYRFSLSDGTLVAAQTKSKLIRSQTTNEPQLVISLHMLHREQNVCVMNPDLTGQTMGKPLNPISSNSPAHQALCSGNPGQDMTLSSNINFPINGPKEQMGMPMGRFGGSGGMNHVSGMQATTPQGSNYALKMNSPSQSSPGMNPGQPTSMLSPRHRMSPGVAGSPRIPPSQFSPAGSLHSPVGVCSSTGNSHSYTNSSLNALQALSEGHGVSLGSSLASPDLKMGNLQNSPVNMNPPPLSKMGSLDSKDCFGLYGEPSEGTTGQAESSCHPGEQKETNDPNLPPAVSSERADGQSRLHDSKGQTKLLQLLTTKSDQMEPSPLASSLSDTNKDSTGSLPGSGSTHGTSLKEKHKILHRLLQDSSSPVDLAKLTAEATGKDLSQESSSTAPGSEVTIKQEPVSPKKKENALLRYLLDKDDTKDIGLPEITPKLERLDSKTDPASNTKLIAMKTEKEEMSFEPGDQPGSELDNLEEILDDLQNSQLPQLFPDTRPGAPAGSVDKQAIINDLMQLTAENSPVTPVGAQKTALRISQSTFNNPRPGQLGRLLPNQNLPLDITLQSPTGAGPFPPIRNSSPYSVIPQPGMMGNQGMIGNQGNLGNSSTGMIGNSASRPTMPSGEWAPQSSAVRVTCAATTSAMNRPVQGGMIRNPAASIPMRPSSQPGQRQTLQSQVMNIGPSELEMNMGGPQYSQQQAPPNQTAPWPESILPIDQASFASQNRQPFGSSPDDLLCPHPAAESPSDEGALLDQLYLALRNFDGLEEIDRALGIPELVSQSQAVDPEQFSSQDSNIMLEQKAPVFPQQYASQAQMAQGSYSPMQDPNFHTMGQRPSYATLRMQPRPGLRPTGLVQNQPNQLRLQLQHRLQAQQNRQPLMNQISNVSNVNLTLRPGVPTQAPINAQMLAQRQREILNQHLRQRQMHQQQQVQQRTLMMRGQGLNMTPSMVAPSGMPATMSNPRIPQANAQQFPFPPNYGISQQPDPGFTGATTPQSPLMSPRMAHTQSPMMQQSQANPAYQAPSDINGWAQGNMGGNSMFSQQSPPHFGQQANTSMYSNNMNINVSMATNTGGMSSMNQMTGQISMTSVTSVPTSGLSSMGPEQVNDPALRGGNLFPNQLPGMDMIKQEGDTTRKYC
Acyl-homoserine lactone acylase PvdQ, sequence (Q9I194 24-193 limits assumed): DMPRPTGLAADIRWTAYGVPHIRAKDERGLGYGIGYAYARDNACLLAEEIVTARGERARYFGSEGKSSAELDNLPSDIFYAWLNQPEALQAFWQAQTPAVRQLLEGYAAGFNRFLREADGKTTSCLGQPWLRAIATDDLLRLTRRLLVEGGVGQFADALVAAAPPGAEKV
Acyl-homoserine lactone acylase PvdQ, sequence (Q9I194 217-762 limits assumed): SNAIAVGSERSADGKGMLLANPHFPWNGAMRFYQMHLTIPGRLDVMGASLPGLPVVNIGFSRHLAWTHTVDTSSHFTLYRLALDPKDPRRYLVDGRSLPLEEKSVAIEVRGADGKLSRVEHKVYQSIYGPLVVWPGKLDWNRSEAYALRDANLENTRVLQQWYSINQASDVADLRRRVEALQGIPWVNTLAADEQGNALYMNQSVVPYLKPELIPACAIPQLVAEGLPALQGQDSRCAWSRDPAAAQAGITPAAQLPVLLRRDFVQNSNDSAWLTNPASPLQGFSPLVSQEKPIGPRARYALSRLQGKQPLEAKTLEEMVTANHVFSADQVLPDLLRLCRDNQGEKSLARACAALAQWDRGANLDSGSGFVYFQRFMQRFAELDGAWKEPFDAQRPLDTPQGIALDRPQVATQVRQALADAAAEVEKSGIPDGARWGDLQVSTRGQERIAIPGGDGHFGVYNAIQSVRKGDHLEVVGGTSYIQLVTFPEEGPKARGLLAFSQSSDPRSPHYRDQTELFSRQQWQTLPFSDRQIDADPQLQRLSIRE
DNA dC->dU-editing enzyme APOBEC-3A, sequence (P31941 whole entry): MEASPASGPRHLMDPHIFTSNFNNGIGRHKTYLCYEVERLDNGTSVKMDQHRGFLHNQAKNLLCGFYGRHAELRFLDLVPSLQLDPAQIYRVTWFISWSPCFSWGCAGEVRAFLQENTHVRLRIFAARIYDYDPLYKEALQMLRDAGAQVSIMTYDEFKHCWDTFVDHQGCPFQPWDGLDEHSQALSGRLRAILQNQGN

CC(C)c1ccc(OCC(=O)NC(=S)Nc2ccc3c4c(cccc24)CC3)cc1
EC50 [1]: > 79.4 µM (not active) | EC50 [2]: > 79.4 µM (not active) | EC50 [3]: > 79.4 µM (not active)

CCOc1ccc(-n2cccc2C=O)cc1
AC50 [4]: 7.29 µM (active)

Cc1cc(NC(=O)c2cc(F)c(F)cc2Cl)no1
AC50 [4]: 24 µM (active)

Cn1c(/C=C/c2ccc(Br)cc2)c([N+](=O)[O-])c(=O)n(C)c1=O
EC50 [5]: 14.4 µM (active) | IC50 [6]: 4.31 µM (active) | CC50 [7]: 21.9 µM (active) | CC50 [8]: 16 µM (active) | IC50 [9]: 14.3 µM (active) | IC50 [10]: 4.87 µM (active) | IC50 [11]: 23.9 µM (active) | CC50 [12]: 12.1 µM (active)

COc1ccc(NC2(c3ccc(Cl)cc3)C(=O)c3ccccc3C2=O)cc1
EC50 [13]: > 40 µM (inactive) | IC50 [14]: > 100 µM (active) | IC50 [15]: 17.9 µM (active)

CCn1c(SCC(=O)Nc2ccc(Cl)cc2)nc2nc3c(cc2c1=O)CCCC3
EC50 [1]: > 79.4 µM (not active) | EC50 [2]: > 79.4 µM (not active) | EC50 [3]: > 79.4 µM (not active)

CC(C)(C)c1ccc2c(c1)OC(C(=O)N/N=C\c1ccc(-c3cccc(C(=O)O)c3)o1)CO2 (stereo not drawn)
IC50 [16]: > 50 µM (active)

Sc1nnc(-c2cccnc2)n1/N=C/c1cccs1
IC50 [17]: > 100 µM (inactive) | IC50 [18]: 2.75 µM (active) | IC50 [19]: 58 µM (active)
